Measured values from US8906826B2, “Herbicidal compositions comprising 4-amino-3-chloro-5-fluoro-6-(4-chloro-2-fluoro-3-methoxyphenyl) pyridine-2-carboxylic acid or a derivative thereof and imidazolinones” (Dow AgroSciences, LLC, priority 2012, dated 2014).

What was measured:
ECHCG = experiment: In-water applied, transplanted paddy rice weeds (Example II); assay type: in vivo, Echinochloa crusgalli (L.) Beauv.
Experimental: (§1) Weed seeds or nutlets of the desired test plant species were planted in puddled soil (mud) prepared by mixing a shredded, non-sterilized mineral soil (50.5 percent silt, 25.5 percent clay, and 24 percent sand, with a pH of about 7.6 and an organic matter content of about 2.9 percent) and water at a 1:1 volumetric ratio. The prepared mud was dispensed in 365 mL aliquots into 16-ounce (oz.) non-perforated plastic pots with a surface area of 86.59 square centimeters (cm^2) leaving a headspace of 3 centimeters (cm) in each pot. Mud was allowed to dry overnight prior to planting or transplanting. Rice seeds were planted in Sun Gro MetroMix® 306 planting mixture, which typically has a pH of about 6.0 to about 6.8 and an organic matter content of about 30 percent, in plastic plug trays. Seedlings at the second or third leaf stage of growth were transplanted into 860 mL of mud contained in 32-oz. non-perforated plastic pots with a surface area of 86.59 cm^2 4 days prior to herbicide application. The paddy was created by filling the headspace of the pots with 2.5 to 3 cm of water. When required to ensure good germination and healthy plants, a fungicide treatment and/or other chemical or physical treatment was applied. The plants were grown for 4-22 days in a greenhouse with an approximate 14 h photoperiod which was maintained at about 29° C. during the day and about 26° C. during the night. Nutrients were added as Osmocote® (19:6:12, N:P:K+minor nutrients) at 2 g per 16-oz. pot and 4 g per 32-oz. pot. Water was added on a regular basis to maintain the paddy flood, and supplemental lighting was provided with overhead metal halide 1000-Watt lamps as necessary. The plants were employed for testing when they reached the first through fourth true leaf stage.
(§2) Treatments consisted of the acid or esters of 4-amino-3-chloro-5-fluoro-6-(4-chloro-2-fluoro-3-methoxy-phenyl)pyridine-2-carboxylic acid (compound A) each formulated as an SC and various herbicidal components alone and in combination. Forms of compound A were applied on an acid equivalent basis.
(§3) Other herbicidal components were applied on an acid equivalent basis and included the acetolactate synthase (ALS)-inhibiting imidazolinone herbicides imazethapyr ammonium salt formulated as Newpath®, imazamox ammonium salt formulated as Beyond®, imazapic ammonium salt formulated as Plateau®, imazapyr isopropylamine salt formulated as Arsenal®, imazamethabenz-methyl (technical material), and imazaquin isopropylamine salt formulated as Scepter®.
(§4) Treatment requirements for each compound or herbicidal component were calculated based upon the rates being tested, the concentration of active ingredient or acid equivalent in the formulation, an application volume of 2 mL per component per pot, and an application area of 86.59 cm^2 per pot.
(§5) For formulated compounds, a measured amount was placed in an individual 100 or 200 mL glass vial and was dissolved in a volume of 1.25% (v/v) Agri-Dex® crop oil concentrate to obtain application solutions.
(§6) For technical grade compounds, a weighed amount was placed in an individual 100 to 200 mL glass vial and was dissolved in a volume of acetone to obtain concentrated stock solutions. […] The concentrated stock solutions obtained were diluted with an equivalent volume of an aqueous mixture containing 2.5% (v/v) crop oil concentrate so that the final application solutions contained 1.25% (v/v) crop oil concentrate.
(§7) Applications were made by injecting with a pipetter appropriate amounts of the application solutions, individually and sequentially, into the aqueous layer of the paddy. Control plants were treated in the same manner with the solvent blank. Applications were made so that all treated plant material received the same concentrations of acetone and crop oil concentrate.
(§8) The treated plants and control plants were placed in a greenhouse as described above and water was added as needed to maintain a paddy flood. […]

LEFCH = experiment: Postemergence foliar-applied, direct seeded rice weeds (Example I); assay type: in vivo, Leptochloa chinensis (L.) Nees
Source text: Seeds or nutlets of the desired test plant species were planted in a soil matrix prepared by mixing a loam or sandy loam soil (e.g., 28.6 percent silt, 18.8 percent clay, and 52.6 percent sand, with a pH of about 5.8 and an organic matter content of about 1.8 percent) and calcareous grit in an 80 to 20 ratio. The soil matrix was contained in plastic pots with a volume of 1 quart and a surface area of 83.6 cm^2. When required to ensure good germination and healthy plants, a fungicide treatment and/or other chemical or physical treatment was applied. The plants were grown for 8-22 days in a greenhouse with an approximate 14 h photoperiod which was maintained at about 29° C. during the day and 26° C. during the night. Nutrients (Peters Excel® 15-5-15 5-Ca 2-Mg and iron chelate) were applied in the irrigation solution as needed and water was added on a regular basis. Supplemental lighting was provided with overhead metal halide 1000-Watt lamps as necessary. The plants were employed for testing when they reached the first through fourth true leaf stage.
as §2, with “(Compound A),” for “(compound A)”, “SC (suspension concentrate),” for “SC”
as §3, with “include” for “included the”, “(ALS)-inhibiting” for “(ALS)-inhibiting imidazolinone”, “herbicides (imidazolinone chemical class)” for “herbicides”, “material)” for “material),”, “Scepter®/Imagine®.” for “Scepter®.”
Treatment requirements were calculated based upon the rates being tested, the concentration of active ingredient or acid equivalent in the formulation, and a 12 mL application volume at a rate of 187 L/ha.
For treatments comprised of formulated compounds, measured amounts of compounds were placed individually in 25 mL glass vials and diluted in a volume of 1.25% (v/v) Agri-Dex® crop oil concentrated to obtain 12× stock solutions. […] Application solutions were prepared by adding an appropriate amount of each stock solution (e.g., 1 mL) and diluted to the appropriate final concentrations with the addition of 10 mL of an aqueous mixture of 1.25% (v/v) crop oil concentrate so that the final spray solutions contained 1.25+/−0.05% (v/v) crop oil concentrate. […]
For treatments comprised of formulated and technical compounds, weighed amounts of the technical materials were placed individually in 25 mL glass vials and dissolved in a volume of 97:3 v/v acetone/DMSO to obtain 12× stock solutions, and measured amounts of the formulated compounds were placed individually in 25 mL glass vials and diluted in a volume of 1.5% (v/v) crop oil concentrate or water to obtain 12× stock solutions. […] Application solutions were prepared by adding an appropriate amount of each stock solution (e.g., 1 mL) and diluted to the appropriate final concentrations with the addition of an appropriate amount of an aqueous mixture of 1.5% (v/v) crop oil concentrate so that the final spray solutions contained 1.25% (v/v) crop oil concentrate. As required, additional water and/or 97:3 v/v acetone/DMSO was added to individual application solutions so that the final acetone and DMSO concentrations of the application solutions being compared were 8.1% and 0.25%, respectively.
All stock solutions and applications solutions were visually inspected for compound compatibility prior to application. […]

ECHOR = experiment: In-water applied, transplanted paddy rice weeds (Example II); assay type: in vivo, Echinochloa oryzoides (Ard.) Fritsch
Experimental: as §1, §2, §3, §4, §5, §6, §7, §8

[1] = Imazethapyr ammonium 8.75 gae/ha
[2] = Imazethapyr ammonium 17.5 gae/ha
[3] = Compound A Benzyl Ester 17.5 gae/ha
[4] = Compound A Benzyl Ester 8.75 gae/ha

## CCc1cnc(C2=NC(C)(C(C)C)C(=O)N2)c(C(=O)O)c1.N (racemic) [Imazethapyr ammonium, ammonium (±)-2-[4,5-dihydro-4-methyl-4-(1-methylethyl)-5-oxo-1H-imidazol-2-yl]-5-ethyl-3-pyridinecarboxylate]
ECHCG; [1]
  Visual Weed Control (%) - 25 DAA ECHCG Obs: 0%
ECHCG; [2]
  Visual Weed Control (%) - 25 DAA ECHCG Obs: 0%
ECHCG; Imazethapyr ammonium 35 gae/ha
  Visual Weed Control (%) - 25 DAA ECHCG Obs: 50%
LEFCH; [1]
  Visual Weed Control (%) - 25 DAA LEFCH Obs: 20%
ECHOR; [1]
  Visual Weed Control (%) - 25 DAA ECHOR Obs: 0%
ECHOR; [2]
  Visual Weed Control (%) - 25 DAA ECHOR Obs: 0%
ECHOR; Imazethapyr ammonium 35 gae/ha
  Visual Weed Control (%) - 25 DAA ECHOR Obs: 25%

## Cc1cnc(C2=NC(C)(C(C)C)C(=O)N2)c(C(=O)O)c1.N (racemic) [Imazapic ammonium, ammonium (±)-2-[4,5-dihydro-4-methyl-4-(1-methylethyl)-5-oxo-1H-imidazol-2-yl]-5-methyl-3-pyridinecarboxylic acid]
ECHCG; Imazapic ammonium 8.75 gae/ha
  Visual Weed Control (%) - 25 DAA ECHCG Obs: 20%
ECHCG; Imazapic ammonium 17.5 gae/ha
  Visual Weed Control (%) - 25 DAA ECHCG Obs: 20%
LEFCH; Imazapic ammonium 17.5 gae/ha
  Visual Weed Control (%) - 25 DAA LEFCH Obs: 50%
LEFCH; Imazapic ammonium 35 gae/ha
  Visual Weed Control (%) - 20 DAA LEFCH Obs: 85%
ECHOR; Imazapic ammonium 4.38 gae/ha
  Visual Weed Control (%) - 25 DAA ECHOR Obs: 0%
ECHOR; Imazapic ammonium 8.75 gae/ha
  Visual Weed Control (%) - 25 DAA ECHOR Obs: 0%
ECHOR; Imazapic ammonium 17.5 gae/ha
  Visual Weed Control (%) - 25 DAA CHOR Obs: 0%
  Visual Weed Control (%) - 25 DAA ECHOR Obs: 0%
ECHOR; Imazapic ammonium 35 gae/ha
  Visual Weed Control (%) - 19 DAA ECHOR Obs: 78%

## COc1c(Cl)ccc(-c2nc(C(=O)OCc3ccccc3)c(Cl)c(N)c2F)c1F [Compound A Benzyl Ester, benzyl ester of 4-amino-3-chloro-5-fluoro-6-(4-chloro-2-fluoro-3-methoxy-phenyl)pyridine-2-carboxylic acid]
ECHCG; [3]
  Visual Weed Control (%) - 25 DAA ECHCG Obs: 10%
ECHCG; Compound A Benzyl Ester 35 gae/ha
  Visual Weed Control (%) - 25 DAA ECHCG Obs: 45%
LEFCH; [4]
  Visual Weed Control (%) - 25 DAA LEFCH Obs: 70%
LEFCH; [3]
  Visual Weed Control (%) - 25 DAA LEFCH Obs: 70%
ECHOR; [4]
  Visual Weed Control (%) - 25 DAA ECHOR Obs: 0%
ECHOR; [3]
  Visual Weed Control (%) - 22 DAA ECHOR Obs: 30%

## COCc1cnc(C2=NC(C)(C(C)C)C(=O)N2)c(C(=O)O)c1.N (racemic) [Imazamox ammonium, ammonium (±)-2-[4,5-dihydro-4-methyl-4-(1-methylethyl)-5-oxo-1H-imidazol-2-yl]-5-(methoxymethyl)-3-pyridinecarboxylate]
ECHCG; Imazamox ammonium 5.6 gae/ha
  Visual Weed Control (%) - 25 DAA ECHCG Obs: 0%
ECHCG; Imazamox ammonium 22.4 gae/ha
  Visual Weed Control (%) - 25 DAA ECHCG Obs: 25%
LEFCH; Imazamox ammonium 11.2 gae/ha
  Visual Weed Control (%) - 25 DAA LEFCH Obs: 20%
ECHOR; Imazamox ammonium 5.6 gae/ha
  Visual Weed Control (%) - 25 DAA ECHOR Obs: 0%
ECHOR; Imazamox ammonium 11.2 gae/ha
  Visual Weed Control (%) - 25 DAA ECHOR Obs: 0%
ECHOR; Imazamox ammonium 22.4 gae/ha
  Visual Weed Control (%) - 25 DAA ECHOR Obs: 0%

## COc1c(Cl)ccc(-c2nc(C(=O)O)c(Cl)c(N)c2F)c1F [Compound A Acid, 4-amino-3-chloro-6-(4-chloro-2-fluoro-3-methoxyphenyl)-5-fluoropyridine-2-carboxylic acid]
ECHCG; Compound A Acid 8.75 gae/ha
  Visual Weed Control (%) - 25 DAA ECHCG Obs: 0%
ECHCG; Compound A Acid 17.5 gae/ha
  Visual Weed Control (%) - 25 DAA ECHCG Obs: 0%
ECHCG; Compound A Acid 35 gae/ha
  Visual Weed Control (%) - 25 DAA ECHCG Obs: 0%
LEFCH; Compound A Acid 4.38 gae/ha
  Visual Weed Control (%) - 25 DAA LEFCH Obs: 0%
LEFCH; Compound A Acid 8.75 gae/ha
  Visual Weed Control (%) - 25 DAA LEFCH Obs: 10%
LEFCH; Compound A Acid 17.5 gae/ha
  Visual Weed Control (%) - 25 DAA LEFCH Obs: 45%
LEFCH; Compound A Acid 19.4 gae/ha
  Visual Weed Control (%) - 20 DAA LEFCH Obs: 5%
ECHOR; Compound A Acid 8.75 gae/ha
  Visual Weed Control (%) - 25 DAA CHOR Obs: 0%
  Visual Weed Control (%) - 25 DAA ECHOR Obs: 0%
ECHOR; Compound A Acid 10.6 gae/ha
  Visual Weed Control (%) - 22 DAA ECHOR Obs: 15%
ECHOR; Compound A Acid 17.5 gae/ha
  Visual Weed Control (%) - 25 DAA CHOR Obs: 0%
  Visual Weed Control (%) - 25 DAA ECHOR Obs: 0%
ECHOR; Compound A Acid 35 gae/ha
  Visual Weed Control (%) - 25 DAA CHOR Obs: 10%
  Visual Weed Control (%) - 25 DAA ECHOR Obs: 10%
ECHOR; Compound A Acid 42 gae/ha
  Visual Weed Control (%) - 19 DAA ECHOR Obs: 15%
ECHOR; Compound A Acid 42.4 gae/ha
  Visual Weed Control (%) - 22 DAA ECHOR Obs: 40%
